Measured values taken from patent US20200270588A1, “GLUCOSYL TRANSFERASE POLYPEPTIDES AND METHODS OF USE” (Syngenta Participations AG, priority 2017, published 2020).
Numbering of substitutions follows the chain as printed. In names and notes the source's numbering stands.

Assays:
[1] = target: T1, Zea mays bx9 glucosyl transferase (C-terminally his tagged SEQ ID NO: 1) (Zea mays, UniProt B4G072); experiment: UDP-Glo glucosyl transferase assay, purified enzyme; assay type: biochemical; conditions: for Activity: herbicide mM: V 0.300, VI 0.250, VII 0.210, IV, VIII, XI, XXI, XX, XVIII, XVI, XV, XIV 0.200, others 1.000
T1 construct: His tag (C); made in house; host or cells: E. coli BL21 (DE3), pET24a
T1 sequence (B4G072 1-462): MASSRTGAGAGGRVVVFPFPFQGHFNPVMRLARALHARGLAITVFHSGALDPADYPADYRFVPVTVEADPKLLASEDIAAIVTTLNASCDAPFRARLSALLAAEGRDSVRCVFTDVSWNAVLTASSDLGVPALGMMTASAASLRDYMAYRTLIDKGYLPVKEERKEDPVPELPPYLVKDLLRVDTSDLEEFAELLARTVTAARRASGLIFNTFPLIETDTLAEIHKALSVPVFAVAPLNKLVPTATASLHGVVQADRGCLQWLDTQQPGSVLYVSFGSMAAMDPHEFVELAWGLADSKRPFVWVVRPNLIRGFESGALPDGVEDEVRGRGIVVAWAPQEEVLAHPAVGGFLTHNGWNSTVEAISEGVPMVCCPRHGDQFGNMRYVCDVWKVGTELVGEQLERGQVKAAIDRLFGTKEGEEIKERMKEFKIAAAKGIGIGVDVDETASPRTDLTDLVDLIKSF
Experimental: (§1) Glucosyl transferase activity is assayed via measurement of acceptor substrate-dependent production of UDP from ultrapure UDP-glucose using the Promega UDP-Glo™ method and according to the manufacturer's instructions. Assays are run in 96 well microtiter plates.
(§2) Enzyme, typically at a stock concentration of ˜2 mg/ml is diluted to an appropriate concentration in 50 mM K^+ Hepes buffer at pH7.5 containing 0.5 mg/mL bovine serum albumin (BSA) and 5 ul aliquots of this diluted enzyme added to each well of a Perkin Elmer white ½ area 96 well plate. […] Assays are run for an appropriate time (usually 10 to 60 min) so that the amount of UDP formed lies within the most nearly linear part of the UDP standard curve and are stopped with the addition and mixing of 25 ul UDP-Glo™ detection reagent (prepared as described below). Plates are then incubated at room temperature for 60 minutes and then read in a luminescence plate reader (Perkin Elmer Envision 2130 Multilabel Reader). A UDP standard curve is run alongside each set of assays and reagent blank control assays run with DMSO in place of test herbicide. Typically, 300 pmol of UDP corresponds to a Relative Luminescence Unit (RLU) reading of about 1.5E7 and the response curve between 0 and 600 pmol is fitted to a polynomial function (see for example FIG. 2).
(§3) The UDP-Glo™ reagents are made up and used according to the manufacturer's instructions. Thus, Nucleotide Detection Buffer and ATP are combined to make nucleotide detection reagent (NDR) dispensed into aliquots and frozen to be freshly thawed before use.
(§4) Km and kcat values in respect of UDP-glucose are derived by carrying out experiments to measure initial rates over a suitable range of concentrations of UDP glucose out at a fixed near saturating concentration of acceptor substrate. Best fit values of kcat, Km and kcat/Km are obtained by direct fitting of the data to the Michaelis-Menten equation using Graphpad Prism™ software.

[2] = target: T2, SEQ ID NO 17, zmBX9 S117V, M279F, A334K mutant (Zea mays, UniProt B4G072, A334K/M279F/S117V); experiment: as above; assay type: biochemical; conditions: for Activity: herbicide mM: V 0.300, VI 0.250, VII 0.210, IV, VIII, XI, XXI, XX, XVIII, XVI, XV, XIV 0.200, others 1.000
T2 construct: polypeptides were the C-terminally his-tagged; His tag (C); made in house
Experimental: as §1, §2, §3, §4
(§5) Variants of C-terminally his tagged SEQ ID No:1 (w/t bx9 from Zea mays), exemplified as SEQ ID 16-30, were cloned, purified and assayed as described in Example 1. FIG. 4 depicts the data from some experiments to determine the kinetic parameters of some of these variants in respect of herbicide VI and table 12 summarizes the estimates of kinetic parameters obtained from further such experiments in respect of a range of herbicides.
(§6) Table 13 summarizes the results obtained from assays, run as described in Example 1, using a variety of alcohol and aminal PSII herbicides as substrates of the Zea mays bx9 w/t (i.e. C-terminally his tagged SEQ ID no 1) and various mutants of the same, selected from SEQ ID NO: 16-30). All of these proteins were C-terminally his-tagged, expressed and purified as described in Example 1. Assays were run and analyzed as described in example 1. It is seen that various of the mutations herein and combinations thereof led to significant improvements (over the w/t bx9 protein) in catalytic activity versus various of the herbicides and that these improvements are often of sufficient magnitude to be useful for conferring improved herbicide tolerance upon crop. This is especially the case given that even the unmutated w/t bx9 enzyme which has only modest glucosyl transferase activity (for example against compounds V and VI) was nevertheless adequately active to confer significant herbicide tolerance in the glass house (as shown in example 9) even without mutational improvement. It is also seen that particular mutations can lead to very much improved activity in respect of some chemistries but not to others but that, overall, there is at least one variant within the scope of the current invention that provides significant and useful improvement in tolerance to each of the chemistries tested.

[3] = target: T3, SEQ ID NO 21, mutant of Zea mays bx9 glucosyl transferase (Zea mays, UniProt B4G072, A334K/F21Y/L194V/M279F/S117V); experiment: as above; assay type: biochemical; conditions: lower block, concentration printed only in upper block: V 0.300, VII 0.210; IV, VIII, XI, XXI, XX, XVIII, XVI, XV, XIV 0.200; others 1.000 mM
T3 construct: His tag (C); made in house
Experimental: as §1, §2, §3, §4, §5, §6

[4] = target: T4, SEQ ID NO 22, mutant of Zea mays bx9 glucosyl transferase (Zea mays, UniProt B4G072, A334K/F21Y/M279F/S117V/T220P); experiment: as above; assay type: biochemical; conditions: lower block, concentration printed only in upper block: V 0.300, VII 0.210; IV, VIII, XI, XXI, XX, XVIII, XVI, XV, XIV 0.200; others 1.000 mM
T4 construct: His tag (C); made in house
Experimental: as §1, §2, §3, §4, §5, §6

[5] = target: T5, SEQ ID NO 18, mutant of Zea mays bx9 glucosyl transferase (Zea mays, UniProt B4G072, A281K/A334K/F21Y/M279F/S117V); experiment: as above; assay type: biochemical; conditions: herbicide mM: V 0.300, VI 0.250, VII 0.210; IV, VIII, XI, XXI, XX, XVIII, XVI, XV, XIV 0.200; others 1.000
T5 construct: His tag (C); made in house
Experimental: as §1, §2
(§7) The UDP-Glo™ reagents are made up and used according to the manufacturer's instructions. Thus, Nucleotide Detection Buffer and ATP are combined to make nucleotide detection reagent (NDR) dispensed into aliquots and frozen to be freshly thawed before use. […]
as §6

[6] = target: T6, SEQ ID NO 19, mutant of Zea mays bx9 glucosyl transferase (Zea mays, UniProt B4G072, A281K/A334K/L194V/M279F/S117V); experiment: as above; assay type: biochemical; conditions: herbicide mM: V 0.300, VI 0.250, VII 0.210; IV, VIII, XI, XXI, XX, XVIII, XVI, XV, XIV 0.200; others 1.000
T6 construct: His tag (C); made in house
Experimental: as §1, §2, §7, §6

[7] = target: T7, SEQ ID NO 23, mutant of Zea mays bx9 glucosyl transferase (Zea mays, UniProt B4G072, A334K/F21Y/L194C/M279F/S117V); experiment: as above; assay type: biochemical; conditions: lower block, concentration printed only in upper block: V 0.300, VII 0.210; IV, VIII, XI, XXI, XX, XVIII, XVI, XV, XIV 0.200; others 1.000 mM
T7 construct: His tag (C); made in house
Experimental: as §1, §2, §7, §6

[8] = target: T8, SEQ ID NO 20, mutant of Zea mays bx9 glucosyl transferase (Zea mays, UniProt B4G072, A281K/A334K/F21Y/L194V/M279F/S117V); assay type: biochemical; conditions: lower block, concentration printed only in upper block: V 0.300, VII 0.210; IV, VIII, XI, XXI, XX, XVIII, XVI, XV, XIV 0.200; others 1.000 mM
T8 construct: His tag (C); made in house
Experimental: as §1
as §2, with “herbicide.” for “herbicide. Typically, 300 pmol of UDP corresponds to a Relative Luminescence Unit (RLU) reading of about 1.5E7 and the response curve between 0 and 600 pmol is fitted to a polynomial function (see for example FIG. 2).”
as §3, §4
All of these proteins were C-terminally his-tagged, expressed and purified as described in Example 1. Assays were run and analyzed as described in example 1.

[9] = UDP luminescence plate assay of E. coli extracts, saturation mutants of SEQ ID NO: 1, herbicide V; assay type: biochemical, Zea mays; conditions: improvement factor relative to w/t bx9 = 1.0, rounded to nearest 0.5; extract activity basis; compound V
[10] = UDP luminescence plate assay of E. coli extracts, mutants of SEQ ID No: 1, 2 mM metribuzin; assay type: biochemical, Zea mays
Outline: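 Extracts of E. coli BL21 DE3 expressing C-terminally His-tagged SEQ ID NO:1 variants incubated with 2 mM metribuzin; UDP formed read by UDP-Glo luminescence against a UDP standard curve, with optional 95 C stop. Mutants ranked by metribuzin/DMSO signal ratio and signal increase over wild-type bx9.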

## CN1CC(O)N(c2cc(C(F)(F)F)ncn2)C1=O (stereo not shown) [XXV]
[1]
  Activity: 0.000 pmol/sec/pmol enzyme
[2]
  Activity: 0.106 pmol/sec/pmol enzyme
[3]
  Activity: 0.170 pmol/sec/pmol enzyme
[4]
  Activity: 0.458 pmol/sec/pmol enzyme
[5]
  Activity: 0.553 pmol/sec/pmol enzyme
[6]
  Activity: 0.581 pmol/sec/pmol enzyme
[7]
  Activity: 0.449 pmol/sec/pmol enzyme
[8]
  Activity: 0.758 pmol/sec/pmol enzyme

## CC1C(=O)N(c2cc(C(F)(F)F)n(C)n2)C(O)[C@@H]1C (stereo partly shown) [XVII]
[1]
  Activity: −0.001 pmol/sec/pmol enzyme
[2]
  Activity: 0.083 pmol/sec/pmol enzyme
[3]
  Activity: 0.195 pmol/sec/pmol enzyme
[4]
  Activity: 0.134 pmol/sec/pmol enzyme
[5]
  Activity: 0.237 pmol/sec/pmol enzyme
[6]
  Activity: 0.331 pmol/sec/pmol enzyme
[7]
  Activity: 0.096 pmol/sec/pmol enzyme
[8]
  Activity: 0.402 pmol/sec/pmol enzyme

## CN1CC(O)N(c2cc(C(F)(F)F)n(C)n2)C1=O (stereo not shown) [XII]
[1]
  Activity: 0.007 pmol/sec/pmol enzyme
[2]
  Activity: 0.018 pmol/sec/pmol enzyme

## C[C@@H]1C(O)N(c2noc(C(C)(C)C)c2C#N)C(=O)[C@@H]1C (stereo partly shown) [XIII]
[1]
  Activity: −0.001 pmol/sec/pmol enzyme
[2]
  Activity: 0.020 pmol/sec/pmol enzyme
[3]
  Activity: 0.040 pmol/sec/pmol enzyme
[4]
  Activity: 0.073 pmol/sec/pmol enzyme
[5]
  Activity: 0.051 pmol/sec/pmol enzyme
[6]
  Activity: 0.095 pmol/sec/pmol enzyme
[7]
  Activity: 0.034 pmol/sec/pmol enzyme
[8]
  Activity: 0.143 pmol/sec/pmol enzyme

## C[C@@H]1C(O)N(c2cc(C(C)(C)C)on2)C(=O)N1C (stereo partly shown) [VII]
[1]
  Activity: 0.000 pmol/sec/pmol enzyme
[4]
  Activity: 0.042 pmol/sec/pmol enzyme
[5]
  Activity: 0.087 pmol/sec/pmol enzyme
[8]
  Activity: 0.049 pmol/sec/pmol enzyme

## CC1CC(O)N(c2ncc(C(F)(F)F)s2)C1=O (stereo not shown) [XVI]
[2]
  Activity: 0.073 pmol/sec/pmol enzyme
[4]
  Activity: 0.285 pmol/sec/pmol enzyme
[5]
  Activity: 0.359 pmol/sec/pmol enzyme
[8]
  Activity: 0.687 pmol/sec/pmol enzyme

## CSc1nnc(C(C)(C)C)c(=O)n1N [metribuzin]
[2]
  increase in activity over bx9 w/t protein: 1.3-1.5 ×

## CON1C(=O)N(c2cc(C(F)(F)F)c(C)cn2)C(O)[C@@H]1C (stereo partly shown) [XV]
[2]
  Activity: 0.833 pmol/sec/pmol enzyme
[3]
  Activity: 1.711 pmol/sec/pmol enzyme
[4]
  Activity: 1.530 pmol/sec/pmol enzyme
[6]
  Activity: 1.391 pmol/sec/pmol enzyme
[7]
  Activity: 1.641 pmol/sec/pmol enzyme

## COc1ccc2c(c1)OC(O)C(=O)N2O (stereo not shown) [DIMBOA, 2,4-dihydroxy-7-methoxy-1,4-benzoxazin-3-one]
[1]; 0.5 mM UDP-glucose, 25 C, pH 7.5, DMSO reagent blank as control
  kcat: 20.82 s⁻¹

## COC1=C(C)C(O)N(c2cc(C(C)(C)C)ncn2)C1=O (stereo not shown) [X]
[1]
  Activity: −0.001 pmol/sec/pmol enzyme
[6]
  Activity: 0.102 pmol/sec/pmol enzyme
[8]
  Activity: 0.137 pmol/sec/pmol enzyme

## C[C@H]1C(O)N(c2cc(C(C)(C)F)ncn2)C(=O)N1C (stereo partly shown) [XIV]
[1]
  Activity: −0.001 pmol/sec/pmol enzyme
[2]
  Activity: 0.037 pmol/sec/pmol enzyme
[7]
  Activity: 0.196 pmol/sec/pmol enzyme
[8]
  Activity: 0.411 pmol/sec/pmol enzyme

B1: T220P: bx9 SEQ ID NO:1 mutant (protein)
chain: T1 sequence (B4G072 1-462) with T220P
modifications: Zea mays
[9]
  Most Preferred amino acid substitutions and (IF) based on RLU/min/ul: H,P(4.0)
[10]; 2 mM metribuzin, relative to bx9 w/t
  SIGNAL: metribuzin signal of mutant divided by the signal of w/t bx9: 1.57
[10]; mutants of SEQ ID No: 1, DMSO in place of metribuzin (background UDP-glucose hydrolysis)
  luminescence signal in the DMSO control: 5.28E+05
[10]; mutants of SEQ ID No: 1 in E. coli extracts, 2 mM metribuzin, UDP luminescence
  luminescence signal observed with 2 mM metribuzin: 4.40E+05
